Measurements from ChEMBL document CHEMBL5726170, “Histone demethylase inhibitors” (2019).

Assay: JMJD2C Assay: The ability of test compounds to inhibit the activity of JMJD2C was determined in 384-well plate format under the following reaction conditions: 0.3 nM JMJD2C, 300 nM H3K9me3-biotin labeled peptide (Anaspec cat #64360), 2 μM alpha-ketoglutaric acid in assay buffer of 50 mM HEPES, pH7.3, 0.005% Brij35, 0.5 mM TCEP, 0.2 mg/ml BSA, 50 μM sodium L-ascorbate, and 2 μM ammonium iron(II) sulfate. Reaction product was determined quantitatively by TR-FRET after the addition of detection reagent Phycolink Streptavidin-allophycocyanin (Prozyme) and Europium-anti-di-methylated histone H3 lysine 9 (H3K9me2) antibody (PerkinElmer) in the presence of 5 mM EDTA in LANCE detection buffer (PerkinElmer) at a final concentration of 50 nM and 1 nM, respectively.The assay reaction was initiated by the following: 2 μl of the mixture of 900 nM H3K9me3-biotin labeled peptide and 6 μM alpha-ketoglutaric acid with 2 μl of 11-point serial diluted inhibitor in 3% DMSO were added to each well of the plate, followed by the addition of 2 μl of 0.9 nM JMJD2C to initiate the reaction. The reaction mixture was incubated at room temperature for 30 min, and terminated by the addition of 6 μl of 5 mM EDTA in LANCE detection buffer containing 100 nM Phycolink Streptavidin-allophycocyanin and 2 nM Europium-anti-H3K9me2 antibody. Plates were read by EnVisionMultilabel Reader in TR-FRET mode (excitation at 320 nm, emission at 615 nm and 665 nm) after 1 hr incubation at rt. A ratio was calculated (665/615) for each well and fitted to determine inhibition constant (IC50).

Q: Which IC50 does the source give for `O=C(O)c1ccncc1NCC1CCOc2cc(F)ccc21` (centres undefined) here?
A: The IC50 was “in the range around 0.55 µM”.

Q: With `O=C(O)c1ccncc1NCC1CCCc2cc(OC(F)(F)F)ccc21` (centres undefined) as the molecule, how does the IC50 read?
A: The IC50 was “in the range around 5.5 µM”.

Q: With `O=C(O)c1ccncc1NCC1CCCc2c(OCC3CC3)cccc21` (centres undefined) as the molecule, how does the IC50 read?
A: Its IC50 is “in the range around 5.5 µM”.

Q: With `O=C(O)c1ccncc1NCC1CCCc2c(Oc3ccccc3)cccc21` (centres undefined) as the molecule, how does the IC50 read?
A: Its IC50 is “in the range around 5.5 µM”.
